Measurements as given in patent publication US10336729B2, “4-cyano-benzyl carbamimidoylcarbamate derivatives and their use as AOC3 inhibitors” (Boehringer Ingelheim International GmbH, priority 2016, dated 2019).

Target: AOC3 (Homo sapiens (Human), UniProt Q16853)
Assay: MAO-Glo AOC3 assay
Assay type: biochemical
Settings: recombinant CHO cells overexpressing AOC3 enzyme
Text: The MAO-Glo™ Assay (commercial available from PROMEGA, #V1402) provides a sensitive method for the measurement of monoamine oxidase (MAO) activity (Valley, M. P. et al., 2006, Anal. Biochem. 359: 238-246) from a variety of tissues, biofluids or recombinant expressed or purified enzymes. As substrate a derivate of the beetle luciferin ((4S)-4,5-dihydro-2-(6-hydroxybenzothiazolyl)-4-thiazole-carboxylic acid) is used, which is oxidized at a primary amine moiety. After a spontaneous elimination and a catalyzed esterase reaction, the turnover of the luciferine by the luciferase is recorded as a signal of AOC3 activity.
An aliquot of 3 μL of the compound dilution is added to a 384 well plate (Optiplate, PS, flat bottom, white, PERKIN ELMER, #6007290) with a final DMSO concentration of 6.6%. Recombinant CHO cells, overexpressing the human (1500 cells/well), mouse (1000 cells/well) or rat (500 cells/well) AOC3 enzyme are diluted in reaction buffer and added in a volume of 15 μL to the wells. After incubation for 20 minutes at 37° C., 2 μL of MAO substrate (dissolved in DMSO at 16 mM, adjusted to assay concentration in reaction buffer to a final assay concentration of 20 μM) is added and further incubated for 60 minutes at 37° C. The turnover of the substrate is determined by the addition of 20 μL of the detection-mix which was generated by the addition of reconstitution buffer with esterase (PROMEGA, #V1402) to the luciferine detection reagent (PROMEGA, #V1402). After an incubation period of 20 minutes, the luminescent signal is measured with Envision 2104 Multilabel Reader (PERKIN ELMER).

Chain of AOC3 (Q16853 whole entry): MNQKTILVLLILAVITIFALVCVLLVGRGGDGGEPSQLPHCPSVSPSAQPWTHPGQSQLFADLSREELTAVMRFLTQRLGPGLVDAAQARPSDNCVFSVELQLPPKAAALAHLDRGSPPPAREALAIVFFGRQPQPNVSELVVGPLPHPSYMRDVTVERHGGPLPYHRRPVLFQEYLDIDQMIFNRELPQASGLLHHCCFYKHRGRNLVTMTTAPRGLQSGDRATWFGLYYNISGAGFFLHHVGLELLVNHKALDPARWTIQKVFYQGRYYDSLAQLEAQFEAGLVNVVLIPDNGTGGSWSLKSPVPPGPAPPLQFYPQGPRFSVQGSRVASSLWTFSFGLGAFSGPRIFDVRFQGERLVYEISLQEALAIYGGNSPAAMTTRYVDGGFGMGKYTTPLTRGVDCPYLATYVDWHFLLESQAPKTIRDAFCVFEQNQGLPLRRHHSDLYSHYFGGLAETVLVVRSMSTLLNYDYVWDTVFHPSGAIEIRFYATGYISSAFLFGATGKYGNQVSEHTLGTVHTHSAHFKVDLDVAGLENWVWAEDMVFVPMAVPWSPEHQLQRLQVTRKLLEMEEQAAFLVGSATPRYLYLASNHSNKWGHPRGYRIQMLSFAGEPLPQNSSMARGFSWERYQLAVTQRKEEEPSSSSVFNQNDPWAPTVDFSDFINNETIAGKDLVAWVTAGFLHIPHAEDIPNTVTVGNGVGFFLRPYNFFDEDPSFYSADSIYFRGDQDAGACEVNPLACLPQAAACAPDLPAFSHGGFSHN

Row | Compound | IC50
1 | CC(=O)N1CCN(C2CCN(c3c(C#N)ccc(COC(=O)NC(=N)N)c3F)CC2)CC1 [Example 1.003] | 67 nM
2 | CC(=O)N1CCC(N2CCN(c3c(C#N)ccc(COC(=O)NC(=N)N)c3F)CC2)CC1 [Example 1.008] | 397 nM
3 | N#Cc1ccc(COC(=O)NC(=N)N)c(F)c1N1CCCN(c2cccnc2)CC1 [Example 1.011] | 95 nM
4 | CN1CCN(C2CCN(c3c(C#N)ccc(COC(=O)NC(=N)N)c3F)CC2)CC1=O [Example 1.018] | 169 nM
5 | COc1ncc(N2CCN(c3cc(COC(=O)NC(=N)N)cc(F)c3C#N)CC2)cn1 [Example 1.020] | 70 nM
6 | N#Cc1ccc(COC(=O)NC(=N)N)c(F)c1N1CCC(N2CCC(C(N)=O)CC2)CC1 [Example 1.024] | 50 nM
7 | CN(C)C(=O)c1ccc(N2CCN(c3c(C#N)ccc(COC(=O)NC(=N)N)c3F)CC2)cc1 [Example 1.026] | 70 nM
8 | N#Cc1ccc(COC(=O)NC(=N)N)c(F)c1N1CCC(c2ccccc2)CC1 [Example 1.029] | 71 nM
9 | N#Cc1ccc(COC(=O)NC(=N)N)c(F)c1N1CCC(c2nccs2)CC1 [Example 1.030] | 65 nM
10 | N#Cc1ccc(COC(=O)NC(=N)N)c(F)c1N1CCC(c2ccc(F)cc2)CC1 [Example 1.031] | 70 nM
11 | COc1cnc(C2CCN(c3c(C#N)ccc(COC(=O)NC(=N)N)c3F)CC2)nc1 [Example 1.032] | 110 nM
12 | N#Cc1ccc(COC(=O)NC(=N)N)c(F)c1N1CCC(c2ncc(Cl)cn2)CC1 [Example 1.037] | 54 nM
13 | N#Cc1ccc(COC(=O)NC(=N)N)c(F)c1N1CCN(C2CCOCC2)CC1 [Example 1.038] | 579 nM
14 | Cc1ccc(N2CCN(c3c(C#N)ccc(COC(=O)NC(=N)N)c3F)CC2)cc1 [Example 1.041] | 177 nM
15 | Cc1cccc(C2CCN(c3c(C#N)ccc(COC(=O)NC(=N)N)c3F)CC2)c1 [Example 1.047] | 65 nM
16 | COc1ccc(C2CCN(c3c(C#N)ccc(COC(=O)NC(=N)N)c3F)CC2)cc1 [Example 1.048] | 82 nM
17 | N#Cc1ccc(COC(=O)NC(=N)N)c(F)c1N1CCC(c2ccc(Cl)cc2)CC1 [Example 1.049] | 102 nM
18 | N#Cc1ccc(COC(=O)NC(=N)N)c(F)c1N1CCN(c2ccccn2)CC1 [Example 1.051] | 271 nM
19 | Cc1cc(C)cc(N2CCN(c3c(C#N)ccc(COC(=O)NC(=N)N)c3F)CC2)c1 [Example 1.052] | 146 nM
20 | N#Cc1ccc(N2CCN(c3c(C#N)ccc(COC(=O)NC(=N)N)c3F)CC2)nc1 [Example 1.055] | 115 nM
21 | N#Cc1ccc(COC(=O)NC(=N)N)c(F)c1N1CCN(c2ccc(C(N)=O)cc2)CC1 [Example 1.058] | 71 nM
22 | N#Cc1ccc(COC(=O)NC(=N)N)c(F)c1N1CCN(c2ccccc2F)CC1 [Example 1.059] | 151 nM
23 | CCc1ccc(N2CCN(c3c(C#N)ccc(COC(=O)NC(=N)N)c3F)CC2)cc1 [Example 1.060] | 334 nM

These reach a lower IC50. Values come first.

Row | IC50 | Compound
24 | 7 nM | N#Cc1ccc(COC(=O)NC(=N)N)c(F)c1N1CCN(c2ccncn2)CC1 [Example 1.001]
25 | 6 nM | CS(=O)(=O)c1ccc(N2CCN(c3c(C#N)ccc(COC(=O)NC(=N)N)c3F)CC2)cc1 [Example 1.002]
26 | 24 nM | CS(=O)(=O)N1CCC(C2CN(c3c(C#N)ccc(COC(=O)NC(=N)N)c3F)C2)CC1 [Example 1.004]
27 | 5 nM | N#Cc1ccc(COC(=O)NC(=N)N)c(F)c1N1CCN(c2ccnnc2)CC1 [Example 1.006]
28 | 10 nM | N#Cc1ccc(COC(=O)NC(=N)N)c(F)c1N1CCN(c2cnccn2)CC1 [Example 1.007]
29 | 3 nM | N#Cc1ccc(N2CCN(c3c(C#N)ccc(COC(=O)NC(=N)N)c3F)CC2)cc1 [Example 1.009]
30 | 25 nM | CC(=O)N1CCC(C2CN(c3c(C#N)ccc(COC(=O)NC(=N)N)c3F)C2)CC1 [Example 1.010]
31 | 6 nM | N#Cc1ccc(COC(=O)NC(=N)N)c(F)c1N1CCN(c2cccnc2)CC1 [Example 1.012]
32 | 19 nM | N#Cc1ccc(C2CN(c3c(C#N)ccc(COC(=O)NC(=N)N)c3F)C2)cc1 [Example 1.013]
33 | 4 nM | CC(=O)N1CCC(C2CCN(c3c(C#N)ccc(COC(=O)NC(=N)N)c3F)CC2)CC1 [Example 1.014]
34 | 19 nM | CC(=O)N[C@@H](C)c1ccc(C2CN(c3c(C#N)ccc(COC(=O)NC(=N)N)c3F)C2)cc1 [Example 1.015]
35 | 12 nM | CCOc1cc(C2CCN(c3c(C#N)ccc(COC(=O)NC(=N)N)c3F)CC2)ccn1 [Example 1.016]
36 | 5 nM | CS(=O)(=O)N1CCC(C2CCN(c3c(C#N)ccc(COC(=O)NC(=N)N)c3F)CC2)CC1 [Example 1.017]
37 | 17 nM | N#Cc1ccc(COC(=O)NC(=N)N)c(F)c1N1CCC(c2ccncc2)C1 (stereo not shown) [Example 1.019]
38 | 21 nM | COc1cccc(N2CCN(c3c(C#N)ccc(COC(=O)NC(=N)N)c3F)CC2)c1 [Example 1.021]
39 | 5 nM | N#Cc1cccc(C2CCN(c3c(C#N)ccc(COC(=O)NC(=N)N)c3F)CC2)c1 [Example 1.022]
40 | 5 nM | N#Cc1ccc(COC(=O)NC(=N)N)c(F)c1N1CCC(c2cn3ccccc3n2)CC1 [Example 1.025]
41 | 4 nM | COC(=O)N1CCC(C2CCN(c3c(C#N)ccc(COC(=O)NC(=N)N)c3F)CC2)CC1 [Example 1.027]

Row | IC50 | Compound
42 | 14 nM | N#Cc1ccc(COC(=O)NC(=N)N)c(F)c1N1CCN(c2cccc(F)c2)CC1 [Example 1.028]
43 | 24 nM | N#Cc1ccc(COC(=O)NC(=N)N)c(F)c1N1CC=C(c2ccc(F)cc2)CC1 [Example 1.033]
44 | 4 nM | N#Cc1ccc(COC(=O)NC(=N)N)c(F)c1N1CCC(c2ccc(C(=O)O)cc2)CC1 [Example 1.035]
45 | 27 nM | N#Cc1ccc(COC(=O)NC(=N)N)c(F)c1N1CCN(c2nccs2)CC1 [Example 1.036]
46 | 42 nM | Cc1ccc(N2CCN(c3c(C#N)ccc(COC(=O)NC(=N)N)c3F)CC2)nc1 [Example 1.039]
47 | 2 nM | N#Cc1cccc(N2CCN(c3c(C#N)ccc(COC(=O)NC(=N)N)c3F)CC2)c1 [Example 1.040]
48 | 46 nM | CS(=O)(=O)c1ccc(N2CCN(c3c(C#N)ccc(COC(=O)NC(=N)N)c3F)CC2)c(F)c1 [Example 1.042]
49 | 17 nM | N#Cc1ccc(COC(=O)NC(=N)N)c(F)c1N1CC=C(c2ncco2)CC1 [Example 1.043]
50 | 10 nM | CN(C)Cc1ccc(C2CCN(c3c(C#N)ccc(COC(=O)NC(=N)N)c3F)CC2)cc1 [Example 1.044]
51 | 29 nM | N#Cc1ccc(N2CCN(c3c(C#N)ccc(COC(=O)NC(=N)N)c3F)CC2)c(F)c1 [Example 1.045]
52 | 27 nM | N#Cc1ccc(COC(=O)NC(=N)N)c(F)c1N1CC=C(c2ccccc2)CC1 [Example 1.046]
53 | 5 nM | N#Cc1ccc(COC(=O)NC(=N)N)c(F)c1N1CCN(c2ccc(F)cc2)C(=O)C1 [Example 1.050]
54 | 15 nM | N#Cc1ccc(COC(=O)NC(=N)N)c(F)c1N1CCN(C2CCCC2)C(=O)C1 [Example 1.053]
55 | 20 nM | N#Cc1ccc(COC(=O)NC(=N)N)c(F)c1N1CCC(C2CCOCC2)CC1 [Example 1.054]
56 | 15 nM | COc1cnc(N2CCN(c3c(C#N)ccc(COC(=O)NC(=N)N)c3F)CC2)nc1 [Example 1.056]
57 | 6 nM | N#Cc1ccc(COC(=O)NC(=N)N)c(F)c1N1CC=C(c2ccc(Cl)cc2)CC1 [Example 1.057]
58 | 30 nM | COc1cccc(C2=CCN(c3c(C#N)ccc(COC(=O)NC(=N)N)c3F)CC2)c1 [Example 1.061]
